Literature values as cited in patent publication US20070191365A1, “3,4,6-Substituted pyridazines for treating neuropathic pain and associated syndromes” (priority 2006, published 2007).

System: animal model of Alzheimer's disease
Conditions: Ranaivo et al., J Neurosci. (2006) 26:662-670

SMILES: c1ccc(-c2cc(-c3ccccc3)c(N3CCN(c4ncccn4)CC3)nn2)cc1 [4,6-diphenyl-3-(4-(pyrimidin-2-yl)piperazin-1-yl)pyridazine]
- efficacy in an animal model of Alzheimer's disease: exhibits efficacy
